Data published in the NIST ThermoML archive (doi:10.1016/j.fluid.2016.08.002).
Numbers after ± are expanded uncertainties.

Test: xn = mol fraction of the nth substance listed
Details: Gas, Vibrating tube method

Q: Which mass density (253.1 K, 21049 kPa, x2 = 0.714) does the source give for `S` [hydrogen sulfide] + C here?
A: Its mass density is 391.7 ± 2.3 kg/m3.

Q: And the mass density (253.1 K, 28034 kPa, x2 = 0.714)?
A: Its mass density is 418.14 ± 1.8 kg/m3.

Q: What about the mass density (253.11 K, 20550 kPa, x2 = 0.714) of the same compound?
A: The mass density was 389.58 ± 2.4 kg/m3.

Q: And the mass density (253.11 K, 25528 kPa, x2 = 0.714)?
A: Its mass density is 409.34 ± 1.9 kg/m3.

Q: And the mass density (253.12 K, 4809 kPa, x2 = 0.8197)?
A: The mass density was 59.33 ± 1.2 kg/m3.

Q: And the mass density (253.12 K, 19058 kPa, x2 = 0.714)?
A: The mass density was 382.7 ± 2.7 kg/m3.

Q: What about the mass density (253.12 K, 24495 kPa, x2 = 0.714) of the same compound?
A: Its mass density is 405.58 ± 2 kg/m3.

Q: What about the mass density (253.13 K, 5304 kPa, x2 = 0.8197) of the same compound?
A: Its mass density is 67.27 ± 1.2 kg/m3.

Q: And the mass density (253.13 K, 17511 kPa, x2 = 0.714)?
A: Its mass density is 374.95 ± 3 kg/m3.

Q: And the mass density (253.13 K, 28568 kPa, x2 = 0.714)?
A: Its mass density is 420 ± 1.8 kg/m3.

Q: What about the mass density (253.14 K, 16004 kPa, x2 = 0.714) of the same compound?
A: Its mass density is 366.38 ± 3.2 kg/m3.

Q: What about the mass density (253.14 K, 25004 kPa, x2 = 0.714) of the same compound?
A: The mass density was 407.49 ± 1.9 kg/m3.

Q: And the mass density (253.15 K, 19521 kPa, x2 = 0.714)?
A: Its mass density is 384.91 ± 2.6 kg/m3.

Q: What about the mass density (253.15 K, 21583 kPa, x2 = 0.714) of the same compound?
A: Its mass density is 393.97 ± 2.3 kg/m3.

Q: What about the mass density (253.15 K, 22523 kPa, x2 = 0.714) of the same compound?
A: The mass density was 397.9 ± 2.1 kg/m3.

Q: And the mass density (253.16 K, 3517 kPa, x2 = 0.8197)?
A: The mass density was 38.95 ± 1.1 kg/m3.

Q: And the mass density (253.16 K, 15038 kPa, x2 = 0.714)?
A: Its mass density is 360.04 ± 3 kg/m3.

Q: What about the mass density (253.16 K, 18491 kPa, x2 = 0.714) of the same compound?
A: The mass density was 380.05 ± 2.8 kg/m3.

Q: What about the mass density (253.16 K, 20070 kPa, x2 = 0.714) of the same compound?
A: Its mass density is 387.42 ± 2.5 kg/m3.

Q: What about the mass density (253.16 K, 29087 kPa, x2 = 0.714) of the same compound?
A: The mass density was 421.82 ± 1.8 kg/m3.

Q: What about the mass density (253.16 K, 29450 kPa, x2 = 0.714) of the same compound?
A: The mass density was 423.08 ± 1.8 kg/m3.

Q: And the mass density (253.16 K, 30025 kPa, x2 = 0.714)?
A: Its mass density is 425.02 ± 1.8 kg/m3.

Q: What about the mass density (253.17 K, 14005 kPa, x2 = 0.714) of the same compound?
A: Its mass density is 352.44 ± 3 kg/m3.

Q: What about the mass density (253.17 K, 22039 kPa, x2 = 0.714) of the same compound?
A: Its mass density is 395.89 ± 2.2 kg/m3.

Q: What about the mass density (253.18 K, 4507 kPa, x2 = 0.8197) of the same compound?
A: The mass density was 52.31 ± 1.1 kg/m3.

Q: And the mass density (253.18 K, 17054 kPa, x2 = 0.714)?
A: The mass density was 372.46 ± 3.1 kg/m3.

Q: What about the mass density (253.19 K, 4054 kPa, x2 = 0.8197) of the same compound?
A: The mass density was 46.42 ± 1.1 kg/m3.

Q: What about the mass density (253.19 K, 18047 kPa, x2 = 0.714) of the same compound?
A: Its mass density is 377.75 ± 2.9 kg/m3.

Q: And the mass density (253.21 K, 2947 kPa, x2 = 0.8197)?
A: Its mass density is 32.5 ± 1 kg/m3.

Q: What about the mass density (253.21 K, 16513 kPa, x2 = 0.714) of the same compound?
A: Its mass density is 369.43 ± 3.2 kg/m3.

Q: What about the mass density (253.22 K, 15498 kPa, x2 = 0.714) of the same compound?
A: The mass density was 363.19 ± 3.1 kg/m3.

Q: What about the mass density (253.23 K, 13535 kPa, x2 = 0.714) of the same compound?
A: The mass density was 348.43 ± 2.9 kg/m3.

Q: What about the mass density (253.25 K, 2607 kPa, x2 = 0.8197) of the same compound?
A: The mass density was 28.21 ± 1 kg/m3.

Q: And the mass density (253.25 K, 14514 kPa, x2 = 0.714)?
A: Its mass density is 356.43 ± 3 kg/m3.

Q: What about the mass density (253.27 K, 13000 kPa, x2 = 0.714) of the same compound?
A: The mass density was 342.99 ± 2.9 kg/m3.

Q: What about the mass density (253.28 K, 188 kPa, x2 = 0.8685) of the same compound?
A: Its mass density is 1.76 ± 0.37 kg/m3.

Q: And the mass density (253.29 K, 508 kPa, x2 = 0.8685)?
A: Its mass density is 4.8 ± 0.45 kg/m3.

Q: And the mass density (253.29 K, 24245 kPa, x2 = 0.8685)?
A: Its mass density is 303.67 ± 1.5 kg/m3.

Q: And the mass density (253.29 K, 24733 kPa, x2 = 0.8685)?
A: Its mass density is 306.89 ± 1.4 kg/m3.

Q: And the mass density (253.3 K, 1250 kPa, x2 = 0.8685)?
A: The mass density was 12.25 ± 0.66 kg/m3.

Q: What about the mass density (253.3 K, 25670 kPa, x2 = 0.8685) of the same compound?
A: Its mass density is 310.08 ± 1.4 kg/m3.

Q: What about the mass density (253.31 K, 1824 kPa, x2 = 0.8685) of the same compound?
A: Its mass density is 18.07 ± 0.82 kg/m3.

Q: And the mass density (253.31 K, 29542 kPa, x2 = 0.8685)?
A: The mass density was 326.32 ± 1.3 kg/m3.

Q: And the mass density (253.32 K, 5258 kPa, x2 = 0.8685)?
A: The mass density was 55.98 ± 1.2 kg/m3.

Q: And the mass density (253.32 K, 6503 kPa, x2 = 0.8685)?
A: The mass density was 73.25 ± 1.3 kg/m3.

Q: And the mass density (253.32 K, 27359 kPa, x2 = 0.8685)?
A: Its mass density is 317.71 ± 1.3 kg/m3.

Q: What about the mass density (253.32 K, 27986 kPa, x2 = 0.8685) of the same compound?
A: Its mass density is 320.59 ± 1.3 kg/m3.

Q: What about the mass density (253.33 K, 2475 kPa, x2 = 0.8685) of the same compound?
A: The mass density was 24.75 ± 1 kg/m3.

Q: And the mass density (253.33 K, 5174 kPa, x2 = 0.8685)?
A: Its mass density is 53.92 ± 1.2 kg/m3.

Q: What about the mass density (253.33 K, 5895 kPa, x2 = 0.8685) of the same compound?
A: Its mass density is 64.88 ± 1.2 kg/m3.

Q: What about the mass density (253.33 K, 28601 kPa, x2 = 0.8685) of the same compound?
A: Its mass density is 322.89 ± 1.3 kg/m3.

Q: And the mass density (253.33 K, 29015 kPa, x2 = 0.8685)?
A: The mass density was 324.42 ± 1.3 kg/m3.

Q: What about the mass density (253.33 K, 30002 kPa, x2 = 0.8685) of the same compound?
A: Its mass density is 327.17 ± 1.3 kg/m3.

Q: And the mass density (253.34 K, 4807 kPa, x2 = 0.8685)?
A: The mass density was 49.57 ± 1.1 kg/m3.

Q: And the mass density (253.34 K, 6994 kPa, x2 = 0.8685)?
A: The mass density was 80.75 ± 1.3 kg/m3.

Q: And the mass density (253.35 K, 3335 kPa, x2 = 0.8685)?
A: The mass density was 33.57 ± 1.1 kg/m3.

Q: What about the mass density (253.35 K, 7572 kPa, x2 = 0.8685) of the same compound?
A: The mass density was 90 ± 1.5 kg/m3.

Q: And the mass density (253.35 K, 7961 kPa, x2 = 0.8685)?
A: The mass density was 99.59 ± 1.5 kg/m3.

Q: What about the mass density (253.36 K, 4114 kPa, x2 = 0.8685) of the same compound?
A: Its mass density is 41.57 ± 1.1 kg/m3.

Q: And the mass density (253.36 K, 7255 kPa, x2 = 0.8685)?
A: Its mass density is 84.54 ± 1.5 kg/m3.

Q: What about the mass density (253.36 K, 8383 kPa, x2 = 0.8685) of the same compound?
A: Its mass density is 108.5 ± 1.6 kg/m3.

Q: And the mass density (253.37 K, 8539 kPa, x2 = 0.8685)?
A: The mass density was 112.16 ± 1.6 kg/m3.

Q: What about the mass density (253.38 K, 4487 kPa, x2 = 0.8685) of the same compound?
A: Its mass density is 45.79 ± 1.1 kg/m3.

Q: And the mass density (253.38 K, 8660 kPa, x2 = 0.8685)?
A: The mass density was 115.11 ± 1.6 kg/m3.

Q: What about the mass density (253.38 K, 8850 kPa, x2 = 0.8685) of the same compound?
A: Its mass density is 119.77 ± 1.6 kg/m3.

Q: What about the mass density (253.39 K, 9030 kPa, x2 = 0.8685) of the same compound?
A: Its mass density is 124.2 ± 1.6 kg/m3.
